We go through 1 molecule from patent US20090137034A1, “METHODS FOR PERFUSION AND PLATING OF PRIMARY HEPATOCYTES AND A MEDIUM THEREFORE” (MASSACHUSETTS INSTITUTE OF TECHNOLOGY, priority 2002, published 2009).

The subject of data set [1] is CYP 1A1. The data set can be described thus: CYP 1A1 inducibility/P450 function in primary hepatocytes in collagen sandwich culture (EROD assay, 3-MC induction). The class given is cell-based. Conditions: mechanism under investigation. How it is done:
To study the effect of different compounds on the function of hepatocyte function and phenotype, hepatocytes were isolated according to techniques well known in the art and cultured in a collagen sandwich configuration. Hepatocytes were induced with the addition of 2 nM 3-methylcholanthrene (3-MC). CYP 1A1 was measured using the EROD assay as described in Pearce et al., 1996. Albumin secretion was measured using ELISA, as described in Dunn et al., 1991. Western blot analysis was performed using techniques well known in the art, using an antibody to CYP1A1.

Data set [2] concerns activated macrophages. To be noted: stated as an observation, no source given; cited from earlier work.

In the case of `N[C@H]1C(O)O[C@H](CO)[C@@H](O)[C@@H]1O` (some centres unmarked) [glucosamine], the P450 function entry in data set [1] was “protection of P450 function”. In addition, the NO synthesis result in data set [2] is “inhibits NO synthesis”.
